Results published in ChEMBL document CHEMBL6177993, “De Novo 3-(Phenylcarbamoyl) Benzoate Analogues: Efficacy against Multidrug-Resistant S. aureus and Elucidation of the Biodistribution Profile” (J Med Chem, 2025).
Converted amounts (≈) assume the structure as drawn.

Tests used:
Format in all cases: functional
Staphylococcus aureus [1] = test: Antibacterial activity against Staphylococcus aureus assessed as reduction in bacterial growth
Enterococcus faecalis = test: Antibacterial activity against Enterococcus faecalis ATCC 35550 assessed as reduction in bacterial growth measured after 18 to 24 hrs by broth microdilution method; conditions: time 18-24 hrs
Bacillus subtilis = test: Antibacterial activity against Bacillus subtilis IITKSM1 assessed as reduction in bacterial growth measured after 18 to 24 hrs by broth microdilution method; conditions: time 18-24 hrs
Staphylococcus aureus [2] = test: Antibacterial activity against Staphylococcus aureus ATCC 29213 assessed as reduction in bacterial growth measured after 18 to 24 hrs by broth microdilution method; conditions: time 18-24 hrs
Klebsiella pneumoniae = test: Antibacterial activity against Klebsiella pneumoniae BAA 1705 assessed as reduction in bacterial growth measured after 18 to 24 hrs by broth microdilution method; conditions: time 18-24 hrs
Acinetobacter baumannii = test: Antibacterial activity against Acinetobacter baumannii BAA 1605 assessed as reduction in bacterial growth measured after 18 to 24 hrs by broth microdilution method; conditions: time 18-24 hrs
Pseudomonas aeruginosa = test: Antibacterial activity against Pseudomonas aeruginosa ATCC 27853 assessed as reduction in bacterial growth measured after 18 to 24 hrs by broth microdilution method; conditions: time 18-24 hrs
Escherichia coli = test: Antibacterial activity against Escherichia coli ATCC 25922 assessed as reduction in bacterial growth measured after 18 to 24 hrs by broth microdilution method; conditions: time 18-24 hrs
Staphylococcus aureus [3] = test: Antibacterial activity against methicillin-sensitive Staphylococcus aureus ATCC 29213 assessed as reduction in bacterial growth measured after 18 to 24 hrs by broth microdilution method; conditions: time 18-24 hrs
Staphylococcus aureus [4] = test: Antibacterial activity against methicillin-resistant Staphylococcus aureus NRS 100 assessed as reduction in bacterial growth measured after 18 to 24 hrs by broth microdilution method; conditions: time 18-24 hrs
Staphylococcus aureus [5] = test: Antibacterial activity against methicillin-resistant Staphylococcus aureus NRS 119 assessed as reduction in bacterial growth measured after 18 to 24 hrs by broth microdilution method; conditions: time 18-24 hrs
Staphylococcus aureus [6] = test: Antibacterial activity against methicillin-resistant Staphylococcus aureus NRS 129 assessed as reduction in bacterial growth measured after 18 to 24 hrs by broth microdilution method; conditions: time 18-24 hrs
Staphylococcus aureus [7] = test: Antibacterial activity against methicillin-resistant Staphylococcus aureus NRS 186 assessed as reduction in bacterial growth measured after 18 to 24 hrs by broth microdilution method; conditions: time 18-24 hrs
Staphylococcus aureus [8] = test: Antibacterial activity against methicillin-resistant Staphylococcus aureus NRS 191 assessed as reduction in bacterial growth measured after 18 to 24 hrs by broth microdilution method; conditions: time 18-24 hrs
Staphylococcus aureus [9] = test: Antibacterial activity against methicillin-resistant Staphylococcus aureus NRS 192 assessed as reduction in bacterial growth measured after 18 to 24 hrs by broth microdilution method; conditions: time 18-24 hrs
Staphylococcus aureus [10] = test: Antibacterial activity against methicillin-resistant Staphylococcus aureus NRS 193 assessed as reduction in bacterial growth measured after 18 to 24 hrs by broth microdilution method; conditions: time 18-24 hrs
Staphylococcus aureus [11] = test: Antibacterial activity against methicillin-resistant Staphylococcus aureus NRS 194 assessed as reduction in bacterial growth measured after 18 to 24 hrs by broth microdilution method; conditions: time 18-24 hrs
Staphylococcus aureus [12] = test: Antibacterial activity against methicillin-resistant Staphylococcus aureus NRS 198 assessed as reduction in bacterial growth measured after 18 to 24 hrs by broth microdilution method; conditions: time 18-24 hrs
Staphylococcus aureus [13] = test: Antibacterial activity against vacomycin-resistant Staphylococcus aureus VRS 1 assessed as reduction in bacterial growth measured after 18 to 24 hrs by broth microdilution method; conditions: time 18-24 hrs
Staphylococcus aureus [14] = test: Antibacterial activity against vacomycin-resistant Staphylococcus aureus VRS 4 assessed as reduction in bacterial growth measured after 18 to 24 hrs by broth microdilution method; conditions: time 18-24 hrs
Staphylococcus aureus [15] = test: Antibacterial activity against vacomycin-resistant Staphylococcus aureus VRS 12 assessed as reduction in bacterial growth measured after 18 to 24 hrs by broth microdilution method; conditions: time 18-24 hrs

SMILES | MIC (Enterococcus faecalis) [µg/mL] | MIC (Bacillus subtilis) [µg/mL] | MIC (Staphylococcus aureus [2]) [µg/mL] | MIC (Klebsiella pneumoniae) [µg/mL] | MIC (Acinetobacter baumannii) [µg/mL] | MIC (Pseudomonas aeruginosa) [µg/mL] | MIC (Escherichia coli) [µg/mL] | other results
O=C(Nc1ccccc1)c1cc(Cl)ccc1O | – | – | – | – | – | – | – | MIC (Staphylococcus aureus [1]): ≥ 2.47 µg/mL
C#CCOc1ccccc1-c1ccc(-c2ccc(-c3ccccc3OCc3cn(CC(=O)N[C@@H](CCCNC(=N)N)C(=O)N[C@@H](CCCNC(=N)N)C(=O)N[C@@H](CCCNC(=N)N)C(N)=O)nn3)cc2)cc1 | – | – | – | – | – | – | – | MIC (Staphylococcus aureus [1]): 3.83 µg/mL (≈ 3.9 µM)
O=C(O)c1cccc(C(=O)Nc2c(C(c3ccccc3)c3ccccc3)cc(Br)cc2C(c2ccccc2)c2ccccc2)c1 | 2 (≈ 3.06 µM) | 2 (≈ 3.06 µM) | 4 (≈ 6.13 µM) | > 64 | > 64 | > 64 | > 64 | –
COc1cc(C(c2ccccc2)c2ccccc2)c(NC(=O)c2cccc(C(=O)O)c2)c(C(c2ccccc2)c2ccccc2)c1 | 64 (≈ 106 µM) | 32 (≈ 53 µM) | 8 (≈ 13.3 µM) | > 64 | > 64 | > 64 | > 64 | –
COc1ccc2c(c[n+]3c4c2ccc2c5c(cc(c24)CC3)OCO5)c1NC(=O)c1csnn1.[Cl-] | – | – | – | – | – | – | – | MIC (Staphylococcus aureus [1]): 2 µg/mL
NCCCC[C@H](N)C(=O)N[C@@H](Cc1ccccc1)CN(CC(=O)NCC12CC3CC(CC(C3)C1)C2)C(=O)CC12CC3CC(CC(C3)C1)C2 | – | – | – | – | – | – | – | MIC (Staphylococcus aureus [1]): 1.56 µg/mL (≈ 2.36 µM)
O=C(O)c1cccc(C(=O)Nc2c(C(c3ccccc3)c3ccccc3)cc(F)cc2C(c2ccccc2)c2ccccc2)c1 | 2 (≈ 3.38 µM) | 1 (≈ 1.69 µM) | 4 (≈ 6.76 µM) | > 64 | > 64 | > 64 | > 64 | –
CC(c1ccccc1)c1cc(Cl)cc(C(C)c2ccccc2)c1NC(=O)c1cccc(C(=O)O)c1 (configuration not stated) | > 64 | > 64 | > 64 | > 64 | > 64 | > 64 | > 64 | –
C[C@H]1COc2c(N3CCN(C)CC3)c(F)cc3c(=O)c(C(=O)O)cn1c23 [LEVOFLOXACIN ANHYDROUS] | – | – | – | – | – | – | – | MIC (Staphylococcus aureus [3]): 0.25 µg/mL (≈ 0.692 µM); MIC (Staphylococcus aureus [4]): 0.25 µg/mL (≈ 0.692 µM); MIC (Staphylococcus aureus [5]): 16 µg/mL (≈ 44.3 µM); MIC (Staphylococcus aureus [6]): 0.25 µg/mL (≈ 0.692 µM); MIC (Staphylococcus aureus [7]): 4 µg/mL (≈ 11.1 µM); MIC (Staphylococcus aureus [8]): 16 µg/mL (≈ 44.3 µM); MIC (Staphylococcus aureus [9]): 8 µg/mL (≈ 22.1 µM); MIC (Staphylococcus aureus [10]): 32 µg/mL (≈ 88.6 µM); MIC (Staphylococcus aureus [11]): 0.125 µg/mL (≈ 0.346 µM); MIC (Staphylococcus aureus [12]): 32 µg/mL (≈ 88.6 µM); MIC (Staphylococcus aureus [13]): 32 µg/mL (≈ 88.6 µM); MIC (Staphylococcus aureus [14]): > 64 µg/mL; MIC (Staphylococcus aureus [15]): 32 µg/mL (≈ 88.6 µM)
O=C(O)c1cccc(C(=O)Nc2c(C(c3ccccc3)c3ccccc3)cc(OC(F)(F)F)cc2C(c2ccccc2)c2ccccc2)c1 | 2 (≈ 3.04 µM) | 2 (≈ 3.04 µM) | 2 (≈ 3.04 µM) | > 64 | > 64 | > 64 | > 64 | –
CC(c1ccccc1)c1cc(C(C)(C)C)cc(C(C)c2ccccc2)c1NC(=O)c1cccc(C(=O)O)c1 (configuration not stated) | > 64 | > 64 | > 64 | > 64 | > 64 | > 64 | > 64 | –
O=C(O)c1cccc(C(=O)Nc2c(C(c3ccccc3)c3ccccc3)cc(C(F)(F)F)cc2C(c2ccccc2)c2ccccc2)c1 | 16 (≈ 24.9 µM) | 1 (≈ 1.56 µM) | > 64 | > 64 | > 64 | > 64 | > 64 | –
CCOc1cc(C(c2ccccc2)c2ccccc2)c(NC(=O)c2cccc(C(=O)O)c2)c(C(c2ccccc2)c2ccccc2)c1 | 64 (≈ 104 µM) | 1 (≈ 1.62 µM) | 64 (≈ 104 µM) | > 64 | > 64 | > 64 | > 64 | –
CCCCc1cc(C(c2ccccc2)c2ccccc2)c(NC(=O)c2cccc(C(=O)O)c2)c(C(c2ccccc2)c2ccccc2)c1 | 2 (≈ 3.18 µM) | 8 (≈ 12.7 µM) | 16 (≈ 25.4 µM) | > 64 | > 64 | > 64 | > 64 | –
O=C(O)c1cccc(C(=O)Nc2c(C(c3ccccc3)c3ccccc3)cc([N+](=O)[O-])cc2C(c2ccccc2)c2ccccc2)c1 | 8 (≈ 12.9 µM) | 4 (≈ 6.47 µM) | 4 (≈ 6.47 µM) | > 64 | > 64 | > 64 | > 64 | –
N=C(N)NCCC[C@H](NC(=O)[C@H](CCCNC(=N)N)NC(=O)[C@H](CCCNC(=N)N)NC(=O)Cn1cc(COc2ccccc2-c2ccc(-c3ccc(-c4ccccc4OCc4cn(CC(=O)N[C@@H](CCCNC(=N)N)C(=O)N[C@@H](CCCNC(=N)N)C(=O)N[C@@H](CCCNC(=N)N)C(N)=O)nn4)cc3)cc2)nn1)C(N)=O | – | – | – | – | – | – | – | MIC (Staphylococcus aureus [1]): 6.05 µg/mL (≈ 3.9 µM)
CN(C)c1ccc(O)c2c1C[C@H]1C[C@H]3[C@H](N(C)C)C(O)=C(C(N)=O)C(=O)[C@@]3(O)C(O)=C1C2=O [MINOCYCLINE] | – | – | – | – | – | – | – | MIC (Staphylococcus aureus [3]): 0.25 µg/mL (≈ 0.546 µM); MIC (Staphylococcus aureus [4]): > 64 µg/mL; MIC (Staphylococcus aureus [5]): > 64 µg/mL; MIC (Staphylococcus aureus [6]): 8 µg/mL (≈ 17.5 µM); MIC (Staphylococcus aureus [7]): 8 µg/mL (≈ 17.5 µM); MIC (Staphylococcus aureus [8]): 64 µg/mL (≈ 140 µM); MIC (Staphylococcus aureus [9]): 32 µg/mL (≈ 69.9 µM); MIC (Staphylococcus aureus [10]): > 64 µg/mL; MIC (Staphylococcus aureus [11]): 2 µg/mL (≈ 4.37 µM); MIC (Staphylococcus aureus [12]): 64 µg/mL (≈ 140 µM); MIC (Staphylococcus aureus [13]): > 64 µg/mL; MIC (Staphylococcus aureus [14]): > 64 µg/mL; MIC (Staphylococcus aureus [15]): 16 µg/mL (≈ 35 µM)
O=C(O)c1cccc(C(=O)Nc2c(C(c3ccccc3)c3ccccc3)cc(C(c3ccccc3)c3ccccc3)cc2C(c2ccccc2)c2ccccc2)c1 | 8 (≈ 10.8 µM) | 64 (≈ 86.5 µM) | > 64 | > 64 | > 64 | > 64 | > 64 | –
O=C(O)c1cccc(C(=O)Nc2c(C(c3ccccc3)c3ccccc3)cc(OC(F)F)cc2C(c2ccccc2)c2ccccc2)c1 | 2 (≈ 3.13 µM) | 1 (≈ 1.56 µM) | 4 (≈ 6.25 µM) | > 64 | > 64 | > 64 | > 64 | –
Cc1cc(C(c2ccccc2)c2ccccc2)c(NC(=O)c2cccc(C(=O)O)c2)c(C(c2ccccc2)c2ccccc2)c1 | 64 (≈ 109 µM) | 64 (≈ 109 µM) | 4 (≈ 6.81 µM) | > 64 | > 64 | > 64 | > 64 | –
